Source: PubChem BioAssay (NCI)
Where “and” joins values, the source holds several entries; their conditions need not be identical. Identical values can stand only once.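 Assay format: 96-well plates, 48-hour exposure. GI50 marks 50% less growth. Definition used: TGI = concentration required for complete inhibition of growth.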

Assays:
Assay in all cases: NCI tumour cell line growth inhibition, 48 h
DU-145 prostate = test system: DU-145 prostate
HCT-116 colon = test system: HCT-116 colon
SK-MEL-2 melanoma = test system: SK-MEL-2 melanoma
NCI-H460 lung = test system: NCI-H460 lung
MDA-MB-231 breast = test system: MDA-MB-231 breast
HT29 colon = test system: HT29 colon
HL-60(TB) leukemia = test system: HL-60(TB) leukemia
BT-549 breast = test system: BT-549 breast

## CC/C(=C(/c1ccc(OCCN(C)C)cc1)c1ccc(OC(=O)CCCCCCCCC(=O)c2c(C)[nH]c(/C=C3\N=C(c4ccc[nH]4)C=C3OC)c2C)cc1)c1ccccc1
DU-145 prostate
  GI50: 8.06 µM
  TGI: > 100 µM
HCT-116 colon
  GI50: 3.36 µM
  TGI: 21.8 µM
SK-MEL-2 melanoma
  GI50: 30.7 µM
  TGI: > 100 µM
NCI-H460 lung
  GI50: 4.26 µM
  TGI: > 100 µM
MDA-MB-231 breast
  GI50: 3.4 µM
  TGI: 18.1 µM
HT29 colon
  GI50: 5.18 µM
  TGI: > 100 µM
HL-60(TB) leukemia
  GI50: 12.3 µM
  TGI: > 100 µM
BT-549 breast
  GI50: 5.21 µM
  TGI: > 100 µM

## Cn1c(=O)c(Oc2ccc(F)cc2F)cc2cnc(NCC(C)(C)O)nc21
DU-145 prostate
  GI50: > 25 µM
  TGI: > 25 µM
HCT-116 colon
  GI50: > 25 µM
  TGI: > 25 µM
SK-MEL-2 melanoma
  GI50: > 25 µM
  TGI: > 25 µM
NCI-H460 lung
  GI50: > 25 µM
  TGI: > 25 µM
MDA-MB-231 breast
  GI50: > 25 µM
  TGI: > 25 µM
HT29 colon
  GI50: > 25 µM
  TGI: > 25 µM
HL-60(TB) leukemia
  GI50: > 25 µM
  TGI: > 25 µM
BT-549 breast
  GI50: > 25 µM
  TGI: > 25 µM

## COc1ccc(-c2cc(=O)c3cc(O)ccc3o2)c(OC)c1OC
HCT-116 colon
  TGI: 61.8 µM
SK-MEL-2 melanoma
  TGI: > 100 µM
HT29 colon
  TGI: > 100 µM
HL-60(TB) leukemia
  TGI: 37.2 µM

## COc1c(B(O)O)cccc1-c1nc2c(F)cc3n[nH]c(C)c3c2c2c1CCCC2
DU-145 prostate
  GI50: 1.42 µM
  TGI: > 50 µM
HCT-116 colon
  GI50: 0.314 µM
  TGI: > 50 µM
SK-MEL-2 melanoma
  GI50: 1.45 µM
  TGI: 3.6 µM
NCI-H460 lung
  GI50: 1.28 µM
  TGI: > 50 µM
MDA-MB-231 breast
  GI50: 0.0412 µM
  TGI: > 50 µM
HT29 colon
  GI50: 1.95 µM
  TGI: > 50 µM
HL-60(TB) leukemia
  GI50: 0.5 µM
  TGI: > 12.9 µM
BT-549 breast
  GI50: 0.238 µM
  TGI: 3.14 µM

## NC(=O)c1csc(-c2ccc(CO)o2)n1
DU-145 prostate
  TGI: > 100 µM
HCT-116 colon
  TGI: > 100 µM
SK-MEL-2 melanoma
  TGI: > 100 µM
NCI-H460 lung
  TGI: > 100 µM
MDA-MB-231 breast
  TGI: > 100 µM
HT29 colon
  TGI: > 100 µM
HL-60(TB) leukemia
  TGI: > 100 µM
BT-549 breast
  TGI: > 100 µM

## O=C(/C=C/C=C/c1ccc2c(c1)OCO2)N/N=C\c1ccc(O)cc1O
DU-145 prostate
  GI50: 3.46 µM
  TGI: 22.3 µM
HCT-116 colon
  GI50: 2.02 µM
  TGI: 14.5 µM
SK-MEL-2 melanoma
  GI50: 5.51 µM
  TGI: 27 µM
NCI-H460 lung
  GI50: 1.58 µM
  TGI: 10.5 µM
MDA-MB-231 breast
  GI50: 3.49 µM
  TGI: 19.3 µM
HT29 colon
  GI50: 3.78 µM
  TGI: 26.2 µM
HL-60(TB) leukemia
  GI50: 3.58 µM
  TGI: 24.1 µM
BT-549 breast
  GI50: 2.25 µM
  TGI: 7.49 µM

## CC(=O)Nc1cc2c3c(cccc3c1)-c1ccccc1-2
DU-145 prostate
  GI50: 16.3 µM
  TGI: 30.2 µM
HCT-116 colon
  GI50: > 100 µM
  TGI: > 100 µM
SK-MEL-2 melanoma
  GI50: 70 µM
  TGI: > 100 µM
NCI-H460 lung
  GI50: 29.6 µM
  TGI: > 100 µM
MDA-MB-231 breast
  GI50: 10.6 µM
  TGI: 25.8 µM
HT29 colon
  GI50: > 100 µM
  TGI: > 100 µM
HL-60(TB) leukemia
  GI50: 0.25 µM
  TGI: > 100 µM
BT-549 breast
  GI50: 64.6 µM
  TGI: > 100 µM

## COc1cc2c(cc1-c1coc3cc(O)ccc3c1=O)OCO2
DU-145 prostate
  TGI: > 100 µM
HCT-116 colon
  TGI: 37.1 µM
SK-MEL-2 melanoma
  TGI: > 100 µM
NCI-H460 lung
  TGI: 32 µM
HT29 colon
  TGI: > 100 µM
HL-60(TB) leukemia
  TGI: > 100 µM
BT-549 breast
  TGI: 41.2 µM

## Nc1n[nH]c2ccc([C@@H]3Nc4ccc5cn[nH]c5c4[C@H]4C5CCC(C5)[C@@H]34)cc12 (some centres not stated)
DU-145 prostate
  GI50: 0.417 µM
  TGI: > 100 µM
HCT-116 colon
  GI50: 0.442 µM
  TGI: > 100 µM
SK-MEL-2 melanoma
  GI50: 0.621 µM
  TGI: > 100 µM
NCI-H460 lung
  GI50: 0.382 µM
  TGI: > 100 µM
MDA-MB-231 breast
  GI50: 0.874 µM
  TGI: > 53.4 µM
HT29 colon
  GI50: 0.382 µM
  TGI: > 100 µM
HL-60(TB) leukemia
  GI50: 0.326 µM
BT-549 breast
  GI50: 0.755 µM
  TGI: > 65.8 µM

## Cc1c(Cl)c(C)c(Cl)c(O)c1Cl
DU-145 prostate
  TGI: > 100 µM
HCT-116 colon
  TGI: 39.6 µM
SK-MEL-2 melanoma
  TGI: 30.3 µM
NCI-H460 lung
  TGI: 65.8 µM
MDA-MB-231 breast
  TGI: > 100 µM
HT29 colon
  TGI: > 100 µM
HL-60(TB) leukemia
  TGI: 58.4 µM
BT-549 breast
  TGI: 81.7 µM

## Cc1cnc(-c2ccc(-c3ccc(NC(=O)Nc4c(F)cc(F)cc4F)cc3F)c3c2C(=O)NC3)[nH]1
DU-145 prostate
  GI50: 1.1 µM and 1.42 µM
  TGI: 4.64 µM and 7.36 µM
HCT-116 colon
  GI50: 0.307 µM and 1.03 µM
  TGI: 2.8 µM and 2.71 µM
SK-MEL-2 melanoma
  GI50: 1.57 µM and 3.75 µM
  TGI: 14.3 µM and 21.6 µM
NCI-H460 lung
  GI50: 0.989 µM
  TGI: 2.75 µM
MDA-MB-231 breast
  GI50: 1.59 µM and 2.51 µM
  TGI: 8.16 µM and 11.3 µM
HT29 colon
  GI50: 0.431 µM and 0.359 µM
  TGI: 2.66 µM and 2.45 µM
HL-60(TB) leukemia
  GI50: 1.1 µM and 0.946 µM
  TGI: 12.9 µM and 16.9 µM
BT-549 breast
  GI50: 1.19 µM and 1.69 µM
  TGI: 19.2 µM and 16.1 µM

## Cc1cc(-c2cc(OC(=O)c3ccccc3)ccc2Cl)cc2nnc(Nc3ccc(OCCN4CCCC4)cc3)nc12
DU-145 prostate
  GI50: 1.75 µM
  TGI: 3.17 µM
HCT-116 colon
  GI50: 1.59 µM
  TGI: 3.16 µM
SK-MEL-2 melanoma
  GI50: 1.78 µM
  TGI: 3.45 µM
NCI-H460 lung
  GI50: 1.72 µM
  TGI: 3.3 µM
MDA-MB-231 breast
  GI50: 1.05 µM
  TGI: 2.31 µM
HT29 colon
  GI50: 1.61 µM
  TGI: 3.04 µM
HL-60(TB) leukemia
  GI50: 2.47 µM
  TGI: 4.69 µM
BT-549 breast
  GI50: 2.67 µM
  TGI: 6.68 µM

## CC[C@@H](C)/C=C(C)/C=C/C(=O)c1c(O)c(-c2ccc(O)cc2)cn(OC2CC(=O)CCC(C)OC(=O)CC2O)c1=O (some centres not stated)
DU-145 prostate
  GI50: 0.303 µM
  TGI: 13.4 µM
HCT-116 colon
  GI50: 0.272 µM
  TGI: 13 µM
SK-MEL-2 melanoma
  GI50: 0.489 µM
  TGI: 15.6 µM
NCI-H460 lung
  GI50: 0.267 µM
  TGI: 2.99 µM
MDA-MB-231 breast
  GI50: 0.85 µM
  TGI: 24.3 µM
HT29 colon
  GI50: 3.47 µM
  TGI: 14.1 µM
HL-60(TB) leukemia
  GI50: 0.212 µM
  TGI: 2.86 µM
BT-549 breast
  GI50: 0.554 µM
  TGI: 16.2 µM

## COc1ccc(/C=C\c2cc(OC)c(OC)c(OC)c2)c(NS(=O)(=O)c2ccc(F)cc2)c1O
DU-145 prostate
  GI50: 0.039 µM
HCT-116 colon
  GI50: 0.0428 µM
  TGI: > 100 µM
SK-MEL-2 melanoma
  GI50: 0.184 µM
  TGI: > 100 µM
NCI-H460 lung
  GI50: 0.0419 µM
  TGI: 26.1 µM
MDA-MB-231 breast
  GI50: 0.0977 µM
  TGI: 70.9 µM
HT29 colon
  GI50: 2.28 µM
  TGI: 20.5 µM
HL-60(TB) leukemia
  GI50: 0.032 µM
  TGI: 23.8 µM
BT-549 breast
  GI50: 0.0619 µM
  TGI: 16.8 µM

## COC(=O)c1cccc(NC(=O)c2ccc(NC3=C(Cl)C(=O)N(Cc4ccccc4)C3=O)cc2)c1
DU-145 prostate
  GI50: 7.9 µM
  TGI: 25.2 µM
HCT-116 colon
  GI50: 3.49 µM
  TGI: 14.9 µM
SK-MEL-2 melanoma
  GI50: 14.5 µM
  TGI: 44.2 µM
NCI-H460 lung
  GI50: 30.2 µM
  TGI: 84.6 µM
MDA-MB-231 breast
  GI50: 10.7 µM
  TGI: 32.1 µM
HT29 colon
  GI50: 21.1 µM
  TGI: > 100 µM
HL-60(TB) leukemia
  GI50: 16.8 µM
  TGI: 38.8 µM
BT-549 breast
  GI50: 15.3 µM
  TGI: 31.9 µM

## C=CC(=O)N1CCC[C@@H](n2nc(-c3ccc(Oc4ccccc4)cc3)c3c(N)ncnc32)C1
DU-145 prostate
  GI50: 3.03 µM
  TGI: > 10 µM
HCT-116 colon
  GI50: > 10 µM
  TGI: > 10 µM
SK-MEL-2 melanoma
  GI50: > 10 µM
  TGI: > 10 µM
NCI-H460 lung
  GI50: > 10 µM
  TGI: > 10 µM
MDA-MB-231 breast
  GI50: 9.69 µM
  TGI: > 10 µM
HT29 colon
  GI50: > 7.23 µM
  TGI: > 10 µM
HL-60(TB) leukemia
  GI50: > 5.51 µM
  TGI: > 10 µM
BT-549 breast
  GI50: > 7.69 µM
  TGI: > 10 µM
